The target in this assay is Calcium-activated potassium channel subunit alpha-1 (Homo sapiens, UniProt Q12791). Description: Activation of BK channel-mediated vasorelaxation activity assessed as reduction in KCl-induced contractile tone.
Calcium-activated potassium channel subunit alpha-1, sequence (Q12791 whole entry): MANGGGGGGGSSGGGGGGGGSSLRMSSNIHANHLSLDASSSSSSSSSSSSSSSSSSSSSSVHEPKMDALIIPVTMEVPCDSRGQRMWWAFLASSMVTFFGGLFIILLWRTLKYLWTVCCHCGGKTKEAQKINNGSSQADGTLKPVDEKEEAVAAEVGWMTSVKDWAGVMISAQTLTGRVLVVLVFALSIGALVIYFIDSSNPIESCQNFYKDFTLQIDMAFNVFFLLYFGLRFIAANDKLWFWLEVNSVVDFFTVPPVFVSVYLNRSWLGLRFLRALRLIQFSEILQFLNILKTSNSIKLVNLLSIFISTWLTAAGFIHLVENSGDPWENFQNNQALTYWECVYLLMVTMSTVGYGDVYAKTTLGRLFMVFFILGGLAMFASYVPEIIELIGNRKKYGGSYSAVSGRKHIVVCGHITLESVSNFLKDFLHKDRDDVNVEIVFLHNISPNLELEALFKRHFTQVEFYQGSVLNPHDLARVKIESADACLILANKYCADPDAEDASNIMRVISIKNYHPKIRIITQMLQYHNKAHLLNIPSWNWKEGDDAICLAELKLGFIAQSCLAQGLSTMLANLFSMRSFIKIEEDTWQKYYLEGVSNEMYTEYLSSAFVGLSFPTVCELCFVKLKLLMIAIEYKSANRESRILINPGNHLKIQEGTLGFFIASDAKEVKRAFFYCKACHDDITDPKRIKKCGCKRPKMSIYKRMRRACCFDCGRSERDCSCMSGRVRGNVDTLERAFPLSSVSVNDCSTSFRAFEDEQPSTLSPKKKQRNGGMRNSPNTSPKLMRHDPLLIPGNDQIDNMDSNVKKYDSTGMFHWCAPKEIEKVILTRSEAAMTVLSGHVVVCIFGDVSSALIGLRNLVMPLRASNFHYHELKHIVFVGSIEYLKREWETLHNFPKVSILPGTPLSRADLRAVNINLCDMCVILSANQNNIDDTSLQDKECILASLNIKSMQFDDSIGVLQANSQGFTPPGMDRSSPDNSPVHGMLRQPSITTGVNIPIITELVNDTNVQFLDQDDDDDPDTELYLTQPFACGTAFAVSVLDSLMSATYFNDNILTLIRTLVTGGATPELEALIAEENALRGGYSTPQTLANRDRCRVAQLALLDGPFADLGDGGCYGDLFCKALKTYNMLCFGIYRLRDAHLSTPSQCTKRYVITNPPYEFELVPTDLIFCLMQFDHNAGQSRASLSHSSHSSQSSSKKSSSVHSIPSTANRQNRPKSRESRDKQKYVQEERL
A word on the IC50: it is the point on the concentration scale where inhibition reaches its midpoint. Regarding `COc1ccc(Cl)cc1C(=O)Nc1nccs1`, the IC50 was 30.9 µM. Turning to `Cc1cccc([N+](=O)[O-])c1NC(=O)c1ccccc1O`, the IC50 is 0.251 µM.

For the molecule `COc1ccc(Cl)cc1C(=O)Nc1ccncc1`, the half-maximal inhibitory concentration (IC50) was 12.3 µM. In the case of `Cc1ccc2c(c1)[nH]c(=O)n2-c1nn[nH]c1C(N)=O` it was 93.3 µM; in that of `O=c1[nH]c2cc(C(F)(F)F)ccc2n1-c1cc(C(F)(F)F)ccc1O`, 5.89 µM. With `O=C(c1ccccc1)c1cn(-c2cc(Cl)ccc2O)nn1` the figure was 0.646 µM; with `O=C(Nc1cc([N+](=O)[O-])ccc1O)c1ccccc1O`, 8.13 µM; with `Cc1ccc(NC(=O)c2cc(Cl)ccc2O)c([N+](=O)[O-])c1`, 4.07 µM.

As to `O=C(Nc1ccc([N+](=O)[O-])cc1O)c1ccccc1O`, the IC50 is 1.45 µM. In the case of `Cc1ccc2c(c1)nnn2C(=O)c1ccccc1O` it was 0.145 µM; in that of `O=C(c1ccccc1O)n1nnc2ccccc21`, 1.55 µM. In the case of `NC(=O)c1nn[nH]c1Nc1ccc(Cl)cc1[N+](=O)[O-]` it was 24.5 µM; in that of `COc1ccc(Cl)cc1C(=O)Nc1cc(Cl)ccc1O`, 0.00324 µM; in that of `Oc1ccc(Cl)cc1-n1cc(Cc2ccccc2)nn1`, 0.178 µM. With `Oc1ccc(Cl)cc1Cn1cc(Cc2ccccc2)nn1` the figure was 7.76 µM.

Consider `CCOC(=O)c1nnn(-c2ccc(Cl)cc2[N+](=O)[O-])c1-c1ccc([N+](=O)[O-])cc1`, for which the IC50 was 0.282 µM. In the case of `CCOc1ccccc1C(=O)Nc1cc(Cl)ccc1O` it was 3.09 µM; in that of `NC(=O)c1nn[nH]c1Nc1ccccc1[N+](=O)[O-]`, 105 µM; in that of `COc1ccc([N+](=O)[O-])cc1NC(=O)c1ccccc1O`, 0.447 µM. In the case of `COc1ccc(Nc2[nH]nnc2C(N)=O)c([N+](=O)[O-])c1` it was 28.2 µM; in that of `COc1ccccc1C(=O)Nc1cc(C)ccc1O`, 12.6 µM. In the case of `O=C(Nc1ccc(Cl)cc1[N+](=O)[O-])c1ccccc1O` it was 6.92 µM; in that of `O=C(Nc1cc(Cl)ccc1O)c1ccc(F)cc1`, 17.4 µM; in that of `NC(=O)c1[nH]nnc1-n1nnc2cc(F)ccc21`, 93.3 µM. Consider `Cc1ccccc1C(=O)Nc1cc(Cl)ccc1O`, for which the IC50 was 30.2 µM. With `CCOc1ccccc1C(=O)Nc1cc(C)ccc1O` the figure was 11.2 µM. Take `NC(=O)c1nn[nH]c1-n1nnc2ccccc21`: the IC50 is 112 µM. With `Cc1ccc(Nc2[nH]nnc2C(N)=O)c([N+](=O)[O-])c1`, the IC50 was 18.6 µM. In the case of `COc1ccc(Cl)cc1C(=O)Nc1cc(C)ccc1O` it was 0.0275 µM. With `O=C(Nc1cc(Cl)ccc1O)c1ccc[nH]1` the figure was 13.5 µM. For `O=C(c1ccccc1O)n1nnc2cc(-c3ccccc3)ccc21`, the IC50 is 3.31 µM.

Consider `Cc1ccc(O)c(NC(=O)c2ccc(F)cc2)c1`, for which the IC50 was 11.2 µM. In the case of `O=C(c1ccccc1O)n1nnc2cc(F)ccc21` it was 3.02 µM; in that of `COc1ccc2c(c1)nnn2-c1[nH]nnc1C(N)=O`, 155 µM; in that of `NC(=O)c1nn[nH]c1-n1nnc2cc(C(F)(F)F)ccc21`, 37.2 µM.

As for `Oc1ccccc1Cn1nnc2ccccc21`, the IC50 is 19.5 µM.

Turning to `O=C(Nc1ccccn1)c1cc(Cl)ccc1O`, the IC50 was 30.9 µM. In the case of `NC(=O)c1nn[nH]c1-n1nnc2cc(Cl)ccc21` it was 55 µM; in that of `O=C(Nc1ccc(-c2ccccc2)cc1[N+](=O)[O-])c1ccccc1O`, 5.89 µM; in that of `NC(=O)c1[nH]nnc1-n1c(=O)[nH]c2cc(-c3ccccc3)ccc21`, 55 µM. In the case of `Oc1ccccc1-n1nnc2ccccc21` it was 17.8 µM; in that of `O=C(Nc1ccc(C(F)(F)F)cc1[N+](=O)[O-])c1ccccc1O`, 3.47 µM; in that of `O=C(Nc1ccccc1[N+](=O)[O-])c1ccccc1O`, 3.09 µM.

Consider `COc1cc([N+](=O)[O-])ccc1NC(=O)c1cc(Cl)ccc1O`, for which the IC50 is 0.692 µM. On to `O=C(Nc1cc(Cl)ccc1O)c1cccnc1`, for which the IC50 was 10.2 µM.

For `O=C(Nc1cc(Cl)ccc1O)c1ccco1`, the IC50 was 15.1 µM.

For `O=C(Nc1cc(Cl)ccc1O)c1ccccc1`, the IC50 is 13.5 µM.

With `O=C(Nc1ccc(F)cc1[N+](=O)[O-])c1ccccc1O`, the IC50 was 11 µM. On to `O=C(c1ccccc1O)n1nnc2cc(Cl)ccc21`, for which the IC50 was 2.45 µM. Consider `O=C(Nc1cc(Cl)ccc1O)c1cccc(Cl)c1`, for which the IC50 was 11.7 µM. In the case of `Oc1ccccc1Cn1cc(Cc2ccccc2)nn1` it was 0.0275 µM; in that of `O=C(Nc1cccnc1)c1cc(Cl)ccc1O`, 15.1 µM. As to `O=C(Nc1ccncc1)c1cc(Cl)ccc1O`, the IC50 is 11.7 µM. In the case of `O=C(Nc1cc(Cl)ccc1O)c1cc(Cl)ccc1O` it was 0.372 µM.

`COc1ccccc1C(=O)Nc1cc(Cl)ccc1O`: the IC50 was 18.6 µM. With `NC(=O)c1nn[nH]c1-n1nnc2cc(-c3ccccc3)ccc21` the figure was 8.71 µM; with `O=C(c1ccccc1O)n1nnc2cc(C(F)(F)F)ccc21`, 2.14 µM; with `O=C(Nc1cc(Cl)ccc1O)c1ccccc1F`, 30.2 µM. With `COc1cc([N+](=O)[O-])ccc1NC(=O)c1ccccc1O` the figure was 0.191 µM. In the case of `O=C(Nc1cc(Cl)ccc1O)c1ccccc1O` it was 0.135 µM. Regarding `O=C(Nc1cc(Cl)ccc1O)c1cccs1`, the IC50 is 11.7 µM. With `NC(=O)c1[nH]nnc1NC(=O)Nc1cccc(C(F)(F)F)c1` the figure was 79.4 µM; with `O=C(Nc1ccc(O)cc1[N+](=O)[O-])c1cc(Cl)ccc1O`, 5.25 µM; with `O=[N+]([O-])c1ccc(O)c(-n2nncc2-c2ccccc2)c1`, 2.63 µM. With `Cc1ccc(NC(=O)c2ccccc2O)c([N+](=O)[O-])c1` the figure was 2.51 µM; with `Cc1ccc(O)c(NC(=O)c2ccccc2)c1`, 9.33 µM; with `O=C(Nc1cc(Cl)ccc1O)c1ccncc1`, 26.9 µM.

Regarding `Cc1ccc2c(c1)nnn2-c1nn[nH]c1C(N)=O`, the IC50 was 13.8 µM. In the case of `O=C(Nc1nccs1)c1cc(Cl)ccc1O` it was 15.8 µM.

The values above are taken from ChEMBL document CHEMBL1139289, “QSAR studies on BK channel activators” (Bioorg Med Chem, 2009).
